Measured values as given in PubChem BioAssay (NCI).
Values after ≈ are worked out from the molar mass of the structure shown.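 Following 48 hours of exposure in 96-well plates, responses at five concentrations were used to interpolate endpoints linearly. Abbreviation: GI50, concentration required for 50% inhibition of growth. TGI denotes the concentration required for complete inhibition of growth.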

Tests used:
Assay in all cases: growth of human tumour cells (NCI), 48 h
LOX IMVI melanoma = test system: LOX IMVI melanoma
K-562 leukemia = test system: K-562 leukemia
A498 renal = test system: A498 renal
SK-MEL-28 melanoma = test system: SK-MEL-28 melanoma
HOP-92 NSCLC = test system: HOP-92 NSCLC
MDA-N = test system: MDA-N
SW-620 colon = test system: SW-620 colon
NCI/ADR-RES ovarian = test system: NCI/ADR-RES ovarian
MDA-MB-231 breast = test system: MDA-MB-231 breast
MCF7 breast = test system: MCF7 breast
U251 CNS = test system: U251 CNS
OVCAR-3 ovarian = test system: OVCAR-3 ovarian
CAKI-1 renal = test system: CAKI-1 renal
T-47D breast = test system: T-47D breast
HCT-116 colon = test system: HCT-116 colon
HCC-2998 colon = test system: HCC-2998 colon
IGROV1 ovarian = test system: IGROV1 ovarian
SF-539 CNS = test system: SF-539 CNS
SK-MEL-2 melanoma = test system: SK-MEL-2 melanoma
NCI-H522 lung = test system: NCI-H522 lung
MDA-MB-435 = test system: MDA-MB-435
PC-3 prostate = test system: PC-3 prostate
OVCAR-4 ovarian = test system: OVCAR-4 ovarian
HS 578T breast = test system: HS 578T breast
RXF 393 renal = test system: RXF 393 renal
NCI-H226 lung = test system: NCI-H226 lung
HL-60(TB) leukemia = test system: HL-60(TB) leukemia
HT29 colon = test system: HT29 colon
SF-295 CNS = test system: SF-295 CNS
OVCAR-5 ovarian = test system: OVCAR-5 ovarian
SNB-19 CNS = test system: SNB-19 CNS
CCRF-CEM leukemia = test system: CCRF-CEM leukemia
SNB-75 CNS = test system: SNB-75 CNS
MALME-3M melanoma = test system: MALME-3M melanoma
EKVX NSCLC = test system: EKVX NSCLC
UACC-62 melanoma = test system: UACC-62 melanoma
SR leukemia = test system: SR leukemia
SK-MEL-5 melanoma = test system: SK-MEL-5 melanoma
DU-145 prostate = test system: DU-145 prostate
MOLT-4 leukemia = test system: MOLT-4 leukemia
SN12C renal = test system: SN12C renal
A549 NSCLC = test system: A549 NSCLC
HOP-62 NSCLC = test system: HOP-62 NSCLC
SF-268 CNS = test system: SF-268 CNS
UACC-257 melanoma = test system: UACC-257 melanoma
HCT-15 colon = test system: HCT-15 colon
SK-OV-3 ovarian = test system: SK-OV-3 ovarian
KM12 colon = test system: KM12 colon
786-0 renal = test system: 786-0 renal
COLO 205 colon = test system: COLO 205 colon
ACHN renal = test system: ACHN renal
TK-10 renal = test system: TK-10 renal
NCI-H460 lung = test system: NCI-H460 lung
M14 melanoma = test system: M14 melanoma
OVCAR-8 ovarian = test system: OVCAR-8 ovarian
NCI-H23 lung = test system: NCI-H23 lung

CC1(C)CC(=O)C2=C(C1)OC(N)=C(c1nc(-c3ccccc3)cs1)C2c1ccc(Br)cc1 (configuration not stated)
GI50 (LOX IMVI melanoma): 124 µg/mL (≈ 245 µM)
TGI (LOX IMVI melanoma): > 150 µg/mL
GI50 (K-562 leukemia): 68.8 µg/mL (≈ 136 µM)
TGI (K-562 leukemia): > 150 µg/mL
GI50 (A498 renal): 66.6 µg/mL (≈ 131 µM)
TGI (A498 renal): > 150 µg/mL
GI50 (SK-MEL-28 melanoma): 93.8 µg/mL (≈ 185 µM)
TGI (SK-MEL-28 melanoma): > 150 µg/mL
GI50 (HOP-92 NSCLC): 33.2 µg/mL (≈ 65.5 µM)
TGI (HOP-92 NSCLC): 126 µg/mL (≈ 249 µM)
GI50 (MDA-N): 74.3 µg/mL (≈ 146 µM)
TGI (MDA-N): > 150 µg/mL
GI50 (SW-620 colon): 86 µg/mL (≈ 170 µM)
TGI (SW-620 colon): > 150 µg/mL
GI50 (NCI/ADR-RES ovarian): 106 µg/mL (≈ 208 µM)
TGI (NCI/ADR-RES ovarian): > 150 µg/mL
GI50 (MDA-MB-231 breast): 59.1 µg/mL (≈ 116 µM)
TGI (MDA-MB-231 breast): > 150 µg/mL
GI50 (MCF7 breast): 18.2 µg/mL (≈ 35.9 µM)
TGI (MCF7 breast): 101 µg/mL (≈ 200 µM)
GI50 (U251 CNS): 71.2 µg/mL (≈ 140 µM)
TGI (U251 CNS): > 150 µg/mL
GI50 (OVCAR-3 ovarian): 59.7 µg/mL (≈ 118 µM)
TGI (OVCAR-3 ovarian): > 150 µg/mL
GI50 (CAKI-1 renal): > 150 µg/mL
TGI (CAKI-1 renal): > 150 µg/mL
GI50 (T-47D breast): 44.6 µg/mL (≈ 87.9 µM)
TGI (T-47D breast): > 150 µg/mL
GI50 (HCT-116 colon): 55.7 µg/mL (≈ 110 µM)
TGI (HCT-116 colon): > 150 µg/mL
GI50 (HCC-2998 colon): 44.4 µg/mL (≈ 87.4 µM)
TGI (HCC-2998 colon): > 150 µg/mL
GI50 (IGROV1 ovarian): 90.9 µg/mL (≈ 179 µM)
TGI (IGROV1 ovarian): > 150 µg/mL
GI50 (SF-539 CNS): 94.8 µg/mL (≈ 187 µM)
TGI (SF-539 CNS): > 150 µg/mL
GI50 (SK-MEL-2 melanoma): 79 µg/mL (≈ 156 µM)
TGI (SK-MEL-2 melanoma): > 150 µg/mL
GI50 (NCI-H522 lung): 42.1 µg/mL (≈ 83 µM)
TGI (NCI-H522 lung): > 150 µg/mL
GI50 (MDA-MB-435): 92.6 µg/mL (≈ 183 µM)
TGI (MDA-MB-435): > 150 µg/mL
GI50 (PC-3 prostate): 50.9 µg/mL (≈ 100 µM)
TGI (PC-3 prostate): > 150 µg/mL
GI50 (OVCAR-4 ovarian): 20.9 µg/mL (≈ 41.1 µM)
TGI (OVCAR-4 ovarian): 121 µg/mL (≈ 239 µM)
GI50 (HS 578T breast): 38.5 µg/mL (≈ 75.9 µM)
TGI (HS 578T breast): > 150 µg/mL
GI50 (RXF 393 renal): 42.5 µg/mL (≈ 83.7 µM)
TGI (RXF 393 renal): 126 µg/mL (≈ 248 µM)
GI50 (NCI-H226 lung): 22.8 µg/mL (≈ 45 µM)
TGI (NCI-H226 lung): 96.8 µg/mL (≈ 191 µM)
GI50 (HL-60(TB) leukemia): 69.2 µg/mL (≈ 136 µM)
TGI (HL-60(TB) leukemia): > 150 µg/mL
GI50 (HT29 colon): 67.4 µg/mL (≈ 133 µM)
TGI (HT29 colon): > 150 µg/mL
GI50 (SF-295 CNS): 142 µg/mL (≈ 280 µM)
TGI (SF-295 CNS): > 150 µg/mL
GI50 (OVCAR-5 ovarian): > 150 µg/mL
TGI (OVCAR-5 ovarian): > 150 µg/mL
GI50 (SNB-19 CNS): > 150 µg/mL
TGI (SNB-19 CNS): > 150 µg/mL
GI50 (CCRF-CEM leukemia): 58.6 µg/mL (≈ 115 µM)
TGI (CCRF-CEM leukemia): > 150 µg/mL
GI50 (SNB-75 CNS): 0.547 µg/mL (≈ 1.08 µM)
TGI (SNB-75 CNS): 46.9 µg/mL (≈ 92.5 µM)
GI50 (MALME-3M melanoma): > 150 µg/mL
TGI (MALME-3M melanoma): > 150 µg/mL
GI50 (EKVX NSCLC): 64.5 µg/mL (≈ 127 µM)
TGI (EKVX NSCLC): > 150 µg/mL
GI50 (UACC-62 melanoma): 30.5 µg/mL (≈ 60.2 µM)
TGI (UACC-62 melanoma): > 150 µg/mL
GI50 (SR leukemia): 112 µg/mL (≈ 221 µM)
TGI (SR leukemia): > 150 µg/mL
GI50 (SK-MEL-5 melanoma): 38.7 µg/mL (≈ 76.2 µM)
TGI (SK-MEL-5 melanoma): > 150 µg/mL
GI50 (DU-145 prostate): 70.9 µg/mL (≈ 140 µM)
TGI (DU-145 prostate): > 150 µg/mL
GI50 (MOLT-4 leukemia): 53.5 µg/mL (≈ 105 µM)
TGI (MOLT-4 leukemia): > 150 µg/mL
GI50 (SN12C renal): 51.8 µg/mL (≈ 102 µM)
TGI (SN12C renal): > 150 µg/mL
GI50 (A549 NSCLC): 53.1 µg/mL (≈ 105 µM)
TGI (A549 NSCLC): > 150 µg/mL
GI50 (HOP-62 NSCLC): 54.4 µg/mL (≈ 107 µM)
TGI (HOP-62 NSCLC): > 150 µg/mL
GI50 (SF-268 CNS): 121 µg/mL (≈ 239 µM)
TGI (SF-268 CNS): > 150 µg/mL
GI50 (UACC-257 melanoma): 97.1 µg/mL (≈ 191 µM)
TGI (UACC-257 melanoma): > 150 µg/mL
GI50 (HCT-15 colon): 36.1 µg/mL (≈ 71.2 µM)
TGI (HCT-15 colon): > 150 µg/mL
GI50 (SK-OV-3 ovarian): 102 µg/mL (≈ 202 µM)
TGI (SK-OV-3 ovarian): > 150 µg/mL
GI50 (KM12 colon): 87.6 µg/mL (≈ 173 µM)
TGI (KM12 colon): > 150 µg/mL
GI50 (786-0 renal): 100 µg/mL (≈ 198 µM)
TGI (786-0 renal): > 150 µg/mL
GI50 (COLO 205 colon): 41.8 µg/mL (≈ 82.4 µM)
TGI (COLO 205 colon): > 150 µg/mL
GI50 (ACHN renal): 61.5 µg/mL (≈ 121 µM)
TGI (ACHN renal): > 150 µg/mL
GI50 (TK-10 renal): 76.9 µg/mL (≈ 152 µM)
TGI (TK-10 renal): > 150 µg/mL
GI50 (NCI-H460 lung): 42.3 µg/mL (≈ 83.4 µM)
TGI (NCI-H460 lung): > 150 µg/mL
GI50 (M14 melanoma): 103 µg/mL (≈ 203 µM)
TGI (M14 melanoma): > 150 µg/mL
GI50 (OVCAR-8 ovarian): 116 µg/mL (≈ 229 µM)
TGI (OVCAR-8 ovarian): > 150 µg/mL
GI50 (NCI-H23 lung): 53.7 µg/mL (≈ 106 µM)
TGI (NCI-H23 lung): > 150 µg/mL
